This note sets out measurements from publication PMC9599548, “EP-Pred: A Machine Learning Tool for Bioprospecting Promiscuous Ester Hydrolases” (Biomolecules, 2022).

Broadly, the Km is the substrate concentration at which the rate is half of its maximum.

Test systems include WP_089515094.1; WP_026140314.1; WP_014900537.1.
Common to all, as to experiment: 4-nitrophenol release at […] nm, initial rates
Holding throughout (format): biochemical
Common to all, as to details: 5 mM EPPS pH 8.0, 30 °C; ester 0–0.04 mM

`CCC(=O)Oc1ccc([N+](=O)[O-])cc1` [p-NP propionate]: the Km was determined as 23.5 ± 3.5 µM in the assay on WP_089515094.1, 14.5 ± 1.1 µM in the assay on WP_026140314.1 and 16.9 ± 1.6 µM in the assay with WP_014900537.1.
